Experimental data as given in ChEMBL document CHEMBL3885861, “Open TG-GATES”.

Species on record: Rattus norvegicus
Test: Open TG-GATES - Regimen: Single
Type: toxicity, organism-based, Sprague-Dawley
Parameters: regimen Single, gender Male, age 6 weeks
Conditions: in vivo, po, route gavage; for gamma-GTP / ALP / ALT / AST / CRE / Ca / Cl / DBIL / GLC / IP / K / LDH / Na / PL / RALB / TBIL / TC / TG / TP / BUN: tissue Plasma; for Bas / Eos / Fbg / Hb / Ht / Lym / MCH / MCHC / MCV / Mono / PT / Plat / RBC / Ret / WBC / APTT / Neu: tissue Blood; for KIDNEY_L / KIDNEY_R / KIDNEY_TOTAL: tissue Kidney; for LIVER: tissue Liver
[1] = 100 mg/kg, 24 h, dose level Low

## COC(=O)C1=C(C)NC(C)=C(C(=O)OC)C1c1ccccc1[N+](=O)[O-] [NIFEDIPINE]
0 mg/kg, 24 h, dose level Control
  gamma-GTP: 1 IU/L
100 mg/kg, 3 h, dose level Low
  TERMINAL_BW: 201.3 g
  Bas: 0%
  Eos: 1%
  Fbg: 279.6 mg/dL
  Hb: 12.9 g/dL
  Ht: 39.2%
  Lym: 71.8%
  MCH: 20.6 pg
  MCHC: 32.8%
  MCV: 62.6 fL
  Mono: 4.4%
  PT: 14.9 s
  Plat: 123.6 x10_4/uL
  RBC: 625.8 x10_4/ul
  Ret: 9.3%
  WBC: 127.1 x10_2/uL
  KIDNEY_L: 0.9 g
  KIDNEY_R: 0.9 g
  KIDNEY_TOTAL: 1.8 g
  LIVER: 7.9 g
  ALP: 1399 IU/L
  ALT: 44.8 IU/L
  AST: 78.6 IU/L
  CRE: 0.3 mg/dL
  Ca: 11.7 mg/dL
  Cl: 98.2 meq/L
  DBIL: 0.01 mg/dL
  GLC: 227.6 mg/dL
  IP: 9 mg/dL
  K: 4.7 meq/L
  LDH: 89.4 IU/L
  Na: 135.6 meq/L
  PL: 132 mg/dL
  RALB: 2.5 g/dL
  TBIL: 0.042 mg/dL
  TC: 76.2 mg/dL
  TG: 31.6 mg/dL
  TP: 5.3 g/dL
  gamma-GTP: 1.2 IU/L
100 mg/kg, 6 h, dose level Low
  TERMINAL_BW: 203.8 g
  APTT: 16.8 s
  Bas: 0%
  Eos: 0.4%
  Fbg: 278.2 mg/dL
  Hb: 12.8 g/dL
  Ht: 39.2%
  Lym: 76.2%
  MCH: 20.2 pg
  MCHC: 32.6%
  MCV: 61.7 fL
  Mono: 3.6%
  Neu: 18.6%
  PT: 15 s
  Plat: 124 x10_4/uL
  RBC: 634.8 x10_4/ul
  Ret: 9.2%
  WBC: 96.4 x10_2/uL
  KIDNEY_L: 0.9 g
  KIDNEY_R: 0.9 g
  KIDNEY_TOTAL: 1.7 g
  LIVER: 7.8 g
  ALP: 1423.2 IU/L
  ALT: 54.6 IU/L
  AST: 82.2 IU/L
  BUN: 32.4 mg/dL
  CRE: 0.2 mg/dL
  Ca: 11.3 mg/dL
  Cl: 98.6 meq/L
  DBIL: 0.01 mg/dL
  GLC: 220.6 mg/dL
  IP: 10.7 mg/dL
  K: 5.2 meq/L
  LDH: 72.8 IU/L
  Na: 135.8 meq/L
  PL: 141.2 mg/dL
  RALB: 2.6 g/dL
  TBIL: 0.042 mg/dL
  TC: 86.4 mg/dL
  TG: 20.8 mg/dL
  TP: 5.5 g/dL
  gamma-GTP: 1.2 IU/L
100 mg/kg, 9 h, dose level Low
  TERMINAL_BW: 204.8 g
  APTT: 15.8 s
  Bas: 0%
  Eos: 0.6%
  Fbg: 292.2 mg/dL
  Hb: 12.7 g/dL
  Ht: 38.7%
  Lym: 80.2%
  MCH: 20.8 pg
  MCHC: 32.9%
  MCV: 63.3 fL
  Mono: 2.8%
  Neu: 14.8%
  PT: 14.6 s
  Plat: 127.7 x10_4/uL
  RBC: 610.8 x10_4/ul
  Ret: 9.7%
  WBC: 116.7 x10_2/uL
  KIDNEY_L: 0.9 g
  KIDNEY_R: 0.9 g
  KIDNEY_TOTAL: 1.7 g
  LIVER: 7.4 g
  ALP: 1305.6 IU/L
  ALT: 46.4 IU/L
  AST: 75.6 IU/L
  BUN: 17.8 mg/dL
  CRE: 0.2 mg/dL
  Ca: 10.9 mg/dL
  Cl: 102 meq/L
  DBIL: 0.008 mg/dL
  GLC: 178.6 mg/dL
  IP: 10.8 mg/dL
  K: 4.6 meq/L
  LDH: 76 IU/L
  Na: 138.6 meq/L
  PL: 152 mg/dL
  RALB: 2.6 g/dL
  TBIL: 0.046 mg/dL
  TC: 90.6 mg/dL
  TG: 28.2 mg/dL
  TP: 5.4 g/dL
  gamma-GTP: 1.2 IU/L
[1]
  TERMINAL_BW: 206.2 g
  APTT: 16.5 s
  Bas: 0%
  Eos: 1%
  Fbg: 267.8 mg/dL
  Hb: 13 g/dL
  Ht: 40.5%
  Lym: 65.6%
  MCH: 20.8 pg
  MCHC: 32.2%
  MCV: 64.5 fL
  Mono: 3.8%
  Neu: 29%
  PT: 13.9 s
  Plat: 133.1 x10_4/uL
  RBC: 629 x10_4/ul
  Ret: 8.8%
  WBC: 87.9 x10_2/uL
  KIDNEY_L: 0.9 g
  KIDNEY_R: 0.9 g
  KIDNEY_TOTAL: 1.8 g
  LIVER: 9.3 g
  ALP: 2046.4 IU/L
  ALT: 44.4 IU/L
  AST: 70.8 IU/L
  BUN: 14.6 mg/dL
  CRE: 0.2 mg/dL
  Ca: 10.6 mg/dL
  Cl: 109.4 meq/L
  DBIL: 0.016 mg/dL
  GLC: 177 mg/dL
  IP: 7.4 mg/dL
  K: 4.4 meq/L
  LDH: 82.6 IU/L
  Na: 146 meq/L
  PL: 132.8 mg/dL
  RALB: 2.6 g/dL
  TBIL: 0.03 mg/dL
  TC: 68.4 mg/dL
  TG: 87.8 mg/dL
  TP: 5.5 g/dL
  gamma-GTP: 1.2 IU/L
300 mg/kg, 3 h, dose level Middle
  TERMINAL_BW: 203.9 g
